{
  "source": "patent US20210330611A1",
  "about": "“THERAPY FOR NEUROLOGICAL DISEASES/DISORDERS” (priority 2020, published 2021)",
  "key": {"[1]": {"system": "fibrin-induced microglia activation", "test": "Image-based assay of fibrin-induced microglia activation (HTS and dose response)", "format": "cell-based, rat", "settings": "for IC50 / inhibition at 10 µM: Rattus norvegicus, Microglia; for inhibition at 10 µM: read-out: Fibrin % inhibition"}, "[2]": {"system": "LPS-induced microglia activation", "test": "Image-based assay of LPS-induced microglia activation (HTS and dose response)", "format": "cell-based, rat", "settings": "for IC50 / inhibition at 10 µM: Rattus norvegicus, Microglia; for inhibition at 10 µM: read-out: LPS % inhibition"}, "[3]": {"system": "fibrin- and LPS-induced microglia activation", "test": "cells", "format": "cell-based, rat", "settings": "for inhibition at 10 µM: Rattus norvegicus"}, "[4]": {"test": "in vitro", "settings": "rat, Cell Toxicity IC50 (uM) [cFib assay], cFib assay"}, "[5]": {"test": "in vitro", "settings": "rat"}, "[6]": {"system": "primary rat microglia", "settings": "rat"}, "[7]": {"system": "primary rat microglia", "settings": "rat", "remark": "listed apart in the source"}, "[8]": {"settings": "primary microglia HTS, fibrin stimulation, compounds at 10 μM"}, "[9]": {"settings": "primary microglia HTS, LPS stimulation, compounds at 10 μM"}, "[10]": {"settings": "quadrant by fibrin and LPS inhibition, HTS at 10 μM"}},
  "note": "Where two headings read alike, the source gives them in different places.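 Wherever Fibrin % cell toxicity is given: share of dead cells sized under 150 µm2 at 10 µM in fibrin-stimulated microglia HTS.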",
  "data": [
    {"smiles": "C[C@@H]1C[C@H]2[C@@H]3CCC4=CC(=O)C=C[C@]4(C)[C@@]3(F)[C@@H](O)C[C@]2(C)[C@@]1(O)C(=O)CO", "note": "[Dexamethasone, reference compound]", "values": [
      {"measurement": "IC50", "setting": "[1]; 48 h, Table 1, dose response 0.001-20 μM, triplicates, primary rat microglia, 48 h, read-out: Fibrin IC50", "result": 15, "unit": "µM"},
      {"measurement": "IC50", "setting": "[1]; Table 7, read-out: fib_IC50", "result": 0.002, "unit": "µM"},
      {"measurement": "IC50", "setting": "[1]; dose response, fibrin-induced microglia activation, read-out: Fibrin IC50", "result": 15, "unit": "µM"},
      {"measurement": "IC50", "setting": "[1]; fibrin-induced microglia activation, dose response, read-out: Fibrin IC50 (uM) (Suppl. Table 7)", "result": 15, "unit": "µM"},
      {"measurement": "IC50", "setting": "[2]; 48 h, Table 1, dose response 0.001-20 μM, triplicates, primary rat microglia, 48 h, read-out: LPS IC50", "result": "> 20", "unit": "µM"},
      {"measurement": "IC50", "setting": "[2]; LPS-induced microglia activation, dose response, read-out: LPS IC50 (uM) (Suppl. Table 7)", "result": "> 20", "unit": "µM"},
      {"measurement": "IC50", "setting": "[2]; Table 7, read-out: LPS_IC50", "result": 0.002, "unit": "µM"},
      {"measurement": "IC50", "setting": "[2]; dose response, LPS-induced microglia activation, read-out: LPS IC50", "result": "> 20", "unit": "µM"},
      {"measurement": "Quadrant (FIG. 5b)", "setting": "[3]; HTS of 1907 compounds, quadrant by fibrin and LPS inhibition", "result": "Q3"},
      {"measurement": "inhibition at 10 µM", "setting": "[3]; Microglia, HTS hit classification, read-out: Hit", "result": "> 50", "unit": "%"},
      {"measurement": "inhibition at 10 µM", "setting": "[3]; hit classification in microglia HTS, read-out: Cherry-picked Hit (Suppl. Table 7)", "result": "> 50", "unit": "%"},
      {"measurement": "Quadrant (FIG. 5b)", "setting": "[3]; Table 1, screen at 10 μM", "result": "Q3"},
      {"measurement": "Quadrant (FIG. 5b)", "setting": "[3]; Table 2, screen at 10 μM", "result": "Q3"},
      {"measurement": "IC50", "setting": "[4]", "result": "> 20", "unit": "µM"},
      {"measurement": "IC50", "setting": "[5]", "result": "> 20", "unit": "µM"}
    ]},
    {"smiles": "CC(=O)OCC[N+](C)(C)C", "note": "[Acetylcholine]", "values": [
      {"measurement": "inhibition at 10 µM", "setting": "[1]; [8]", "result": -39, "unit": "%"},
      {"measurement": "inhibition at 10 µM", "setting": "[2]; [9]", "result": 9, "unit": "%"},
      {"measurement": "Quadrant (FIG. 5b)", "setting": "[3]; [10]", "result": "Q4"},
      {"measurement": "Fibrin % cell toxicity", "setting": "[6]", "result": 0, "unit": "%"},
      {"measurement": "LPS % cell toxicity", "setting": "[7]", "result": 0, "unit": "%"}
    ]},
    {"smiles": "NCC(=O)CCC(=O)O", "note": "[Aminolevulinic acid]", "values": [
      {"measurement": "inhibition at 10 µM", "setting": "[1]; [8]", "result": -4, "unit": "%"},
      {"measurement": "inhibition at 10 µM", "setting": "[2]; [9]", "result": 10, "unit": "%"},
      {"measurement": "Quadrant (FIG. 5b)", "setting": "[3]; [10]", "result": "Q4"},
      {"measurement": "Fibrin % cell toxicity", "setting": "[6]", "result": 1, "unit": "%"},
      {"measurement": "LPS % cell toxicity", "setting": "[7]", "result": 0, "unit": "%"}
    ]},
    {"smiles": "CCn1cc(C(=O)O)c(=O)c2cc(F)c(N3CCNCC3)cc21", "note": "[Norfloxacin]", "values": [
      {"measurement": "inhibition at 10 µM", "setting": "[1]; primary microglia HTS, fibrin stimulation, increased cell size (>800 μm^2) as marker of activation", "result": 0, "unit": "%"},
      {"measurement": "inhibition at 10 µM", "setting": "[2]; 48 h, primary microglia HTS, LPS stimulation, increased cell size (>800 μm^2) as marker of activation", "result": 9, "unit": "%"},
      {"measurement": "Quadrant (FIG. 5b)", "setting": "[3]; quadrant by fibrin and LPS inhibition in HTS of 1907 compounds", "result": "Q4"},
      {"measurement": "Fibrin % cell toxicity", "setting": "[6]", "result": 1, "unit": "%"},
      {"measurement": "LPS % cell toxicity", "setting": "[7]", "result": 0, "unit": "%"}
    ]},
    {"smiles": "CO[C@H]1/C=C/O[C@@]2(C)Oc3c(C)c(O)c4c(O)c(c(/C=N/N5CCN(C)CC5)c(O)c4c3C2=O)NC(=O)/C(C)=C\\C=C\\[C@H](C)[C@H](O)[C@@H](C)[C@@H](O)[C@@H](C)[C@H](OC(C)=O)[C@@H]1C", "note": "[Rifampicin]", "values": [
      {"measurement": "Fibrin % inhibition", "setting": "[1]", "result": "−21", "unit": "%"},
      {"measurement": "LPS % inhibition", "setting": "[2]", "result": 7, "unit": "%"},
      {"measurement": "Quadrant (FIG. 5b)", "setting": "[3]", "result": "Q4"},
      {"measurement": "Fibrin % cell toxicity", "setting": "[6]", "result": 1, "unit": "%"},
      {"measurement": "LPS % cell toxicity", "setting": "[7]", "result": 0, "unit": "%"}
    ]},
    {"smiles": "CCOP(=S)(OCC)Oc1nc(Cl)c(Cl)cc1Cl", "note": "[Chlorpyrifos]", "values": [
      {"measurement": "inhibition at 10 µM", "setting": "[1]; primary HTS, 10 μM, fibrin-stimulated primary microglia", "result": -7, "unit": "%"},
      {"measurement": "inhibition at 10 µM", "setting": "[2]; primary HTS, 10 μM, LPS-stimulated primary microglia", "result": 1, "unit": "%"},
      {"measurement": "Quadrant (FIG. 5b)", "setting": "[3]; primary HTS, 10 μM", "result": "Q4"},
      {"measurement": "Fibrin % cell toxicity", "setting": "[6]", "result": 1, "unit": "%"},
      {"measurement": "LPS % cell toxicity", "setting": "[7]", "result": 0, "unit": "%"}
    ]}
  ]
}
